Measurements published in publication PMC11111408, “Concurrent inhibition of oncogenic and wild-type RAS-GTP for cancer therapy” (Nature, 2024).
Several values for one entry are separate records, joined by “and”; a condition that tells them apart may be missing. Identical values can stand only once.

Experiments:
NRAS^Q61K [1] = molecular target: T1, NRAS^Q61K (Homo sapiens, UniProt P01111+P62937, Q61K); assay: RAS binding affinity of compound-bound CYPA (Kd2), SPR; details: steady state SPR, (95% CI)
HRAS^G13R = HRAS^G13R (Homo sapiens, UniProt P01112+P62937, G13R); assay: Biochemical RAS–RAF (BRAF RBD) disruption, TR-FRET; details: HRAS^G13R; BRAF RBD; (95% CI); read-out: Biochemical RAS-RAF Disruption EC50
Excerpt: (§1) Time-resolved fluorescence resonance energy transfer (TR-FRET) was used as previously described to assess disruption of the interactions between wild-type RAS or the mutant oncogenic RAS proteins and the RAS-binding domain of BRAF, and to assess the induction of interactions between the RAS proteins and CYPA[12].

KRAS^G12A = KRAS^G12A (Homo sapiens, UniProt P01116+P62937, G12A); assay: Biochemical RAS–RAF (BRAF RBD) disruption, TR-FRET
Excerpt: as §1

KRAS^G13C = KRAS^G13C (Homo sapiens, UniProt P01116+P62937, G13C); assay: Biochemical RAS–RAF (BRAF RBD) disruption, TR-FRET
Excerpt: as §1

KRAS^G13D = KRAS^G13D (Homo sapiens, UniProt P01116+P62937, G13D); assay: Biochemical RAS–RAF (BRAF RBD) disruption, TR-FRET
Excerpt: as §1

KRAS^Q61H = KRAS^Q61H (Homo sapiens, UniProt P01116+P62937, Q61H); assay: Biochemical RAS–RAF (BRAF RBD) disruption, TR-FRET
Excerpt: as §1

NRAS WT = NRAS WT (Homo sapiens, UniProt P01111+P62937); assay: Biochemical RAS–RAF (BRAF RBD) disruption, TR-FRET
Excerpt: as §1

NRAS^Q61K [2] = molecular target: T1, NRAS^Q61K; assay: Biochemical RAS–RAF (BRAF RBD) disruption, TR-FRET
Excerpt: as §1

NRAS^Q61L = NRAS^Q61L (Homo sapiens, UniProt P01111+P62937, Q61L); assay: Biochemical RAS–RAF (BRAF RBD) disruption, TR-FRET; details: (95% CI)
Excerpt: as §1

NRAS^Q61R = NRAS^Q61R (Homo sapiens, UniProt P01111+P62937, Q61R); assay: Biochemical RAS–RAF (BRAF RBD) disruption, TR-FRET; details: (95% CI)
Excerpt: as §1

KRAS–SOS1 = molecular target: T2, KRAS–SOS1 (Homo sapiens, UniProt P01116+); assay: Cellular nano-BRET, catalytic domain of SOS1 binding to KRAS; assay type: cell-based; details: in the presence of CYPA, single replicates;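 also: U2OS cells expressing partner proteins fused at the N-terminus to nanoluciferase or HaloTag, nano-BRET signal read after inhibitor exposure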
T2 construct: expressed in transfected cells; host or cells: U2OS

RAS-less MEFs = assay: Western blots of isogenic RAS-less MEF cells expressing KRAS variants or BRAF(V600E); assay type: cell-based, mouse; details: 24 h, western blot
[3] = tested on: Capan-1, SW620, AsPC-1, HPAC, NCI-H358, PSN1, HUPT3, HCT 116, Hs 766T, SK-MEL-30, KU1919, NCI-H1975, A375; assay: pERK (AlphaLISA) in human cancer cell lines; assay type: cell-based
Excerpt: Data points show biological duplicates normalized to vehicle control. […] Data points show biological duplicates normalized to vehicle control from 1 of 2–26 independent experiments. Source Data

[4] = tested on: KRAS^G12D PDAC cell lines; assay: Western blot time course of RAS signalling in KRAS^G12D PDAC cell lines; assay type: cell-based, human; details: KRAS^G12D PDAC cells in culture, 2 h to 48 h
Protocol: Total ERK and vinculin were used as loading controls. […] Source Data
Cells were lysed with MSD Tris Lysis Buffer (MSD, R60TX-2) or a buffer of 1% Triton X-100, 20 mM Tris-HCl, 150 mM NaCl, and 1 mM EDTA, both supplemented with protease and phosphatase inhibitors. Lysates were cleared by centrifugation and quantified by BCA assay (Pierce, 23225). […] Image Studio Lite (Version 5.2.5) and Image Lab (Version 6.1.0 build 7) software were used for data analysis.

[5] = tested on: NCI-H358 cells (CYPA-high, CYPA-low); assay: pERK (MSD) in NCI-H358 cells with low or high CYPA; details: NCI-H358, doxycycline-inducible CYPA
Excerpt: NCI-H358 cells were transduced by lentivirus encoding Cas9, a guide RNA targeting PPIA (which encodes CYPA), and the puromycin resistance gene at WarpDrive Bio. Following puromycin selection, Flag–CYPA was introduced under the control of a tet-inducible promoter by lentivirus. Clones with high and low expression levels of Flag–CYPA were isolated at Revolution Medicines.

KRAS WT = KRAS WT (Homo sapiens, UniProt P01116+P62937); assay: Biochemical RAS–RAF (BRAF RBD) disruption, TR-FRET; design: made in house; host or cells: BL21(DE3) Escherichia coli
Excerpt: as §1

KRAS^G12D = KRAS^G12D (Homo sapiens, UniProt P01116+P62937, G12D); assay: Biochemical RAS–RAF (BRAF RBD) disruption, TR-FRET; design: made in house; host or cells: BL21(DE3) Escherichia coli; details: (95% CI)
Excerpt: as §1

KRAS^G12R = KRAS^G12R (Homo sapiens, UniProt P01116+P62937, G12R); assay: Biochemical RAS–RAF (BRAF RBD) disruption, TR-FRET; design: made in house; host or cells: BL21(DE3) Escherichia coli; details: (95% CI)
Excerpt: as §1

KRAS^G12C = KRAS^G12C (Homo sapiens, UniProt P01116+P62937, G12C); assay: RAS binding affinity of compound-bound CYPA (Kd2), SPR; design: His6-TEV (N); made in house; host or cells: BL21(DE3) Escherichia coli; details: steady state SPR, (95% CI)
KRAS^G12V = KRAS^G12V (Homo sapiens, UniProt P01116+P62937, G12V); assay: KRAS–RALGDS RID binding inhibition in vitro; assay type: biochemical; design: His6-TEV (N); made in house; host or cells: BL21(DE3) Escherichia coli; TR-FRET of recombinant KRAS and RALGDS RID: scale not given here; details: for TR-FRET of recombinant KRAS and RALGDS RID: KRAS G12V, single replicates

SMILES: CCn1c(-c2cc(N3CCN(C4CC4)CC3)cnc2[C@H](C)OC)c2c3cc(ccc31)-c1csc(n1)C[C@H](NC(=O)[C@H]1[C@@H]3COC[C@@H]31)C(=O)N1CCC[C@H](N1)C(=O)OCC(C)(C)C2 [RMC-7977]
- Kd (NRAS^Q61K [1]): 72.4 nM
- EC50 (HRAS^G13R): 23.7 nM
- EC50 (KRAS^G12A): 102 nM
- EC50 (KRAS^G13C): 49.7 nM
- EC50 (KRAS^G13D): 142 nM
- EC50 (KRAS^Q61H): 47.7 nM
- EC50 (NRAS WT): 57.7 nM
- EC50 (NRAS^Q61K [2]): 53.9 nM
- EC50 (NRAS^Q61L): 145 nM
- EC50 (NRAS^Q61R): 181 nM
- Cellular nano-BRET of SOS1 (catalytic domain) binding to KRAS WT (KRAS–SOS1; RMC-7977 0.152 nM): 8.563 and 8.127 and 7.755 and 7.611 and 8.1239 and 8.058
- Cellular nano-BRET of SOS1 (catalytic domain) binding to KRAS WT (KRAS–SOS1; RMC-7977 0.457 nM): 8.149 and 7.736 and 7.651 and 7.24 and 7.671 and 7.508
- Cellular nano-BRET of SOS1 (catalytic domain) binding to KRAS WT (KRAS–SOS1; RMC-7977 1.372 nM): 7.907 and 7.747 and 7.493 and 7.384 and 7.007 and 7.17
- Cellular nano-BRET of SOS1 (catalytic domain) binding to KRAS WT (KRAS–SOS1; RMC-7977 4.115 nM): 6.922 and 7.229 and 6.471 and 6.374 and 6.52 and 6.661
- Cellular nano-BRET of SOS1 (catalytic domain) binding to KRAS WT (KRAS–SOS1; RMC-7977 12.346 nM): 6.508 and 6.709 and 6.01 and 5.988 and 6.2252 and 6.045
- Cellular nano-BRET of SOS1 (catalytic domain) binding to KRAS WT (KRAS–SOS1; RMC-7977 37.037 nM): 7.064 and 6.964 and 6.2728 and 5.9257 and 6.205 and 6.027
- Cellular nano-BRET of SOS1 (catalytic domain) binding to KRAS WT (KRAS–SOS1; RMC-7977 111.111 nM): 6.712 and 6.771 and 6.171 and 6.63 and 5.929 and 6.341
- Cellular nano-BRET of SOS1 (catalytic domain) binding to KRAS WT (KRAS–SOS1; RMC-7977 333.333 nM): 6.383 and 7.187 and 5.742 and 6.572 and 6.198 and 6.656
- Cellular nano-BRET of SOS1 (catalytic domain) binding to KRAS WT (KRAS–SOS1; RMC-7977 1000.000 nM): 6.907 and 6.939 and 5.652 and 5.948 and 6.113 and 6.236
- pERK suppression in RAS-less MEFs (RAS-less MEFs): suppressed pERK in all KRAS-expressing cells, but not in BRAF(V600E)-expressing RAS-less MEFs
- pERK of RAS mutant and RAS WT cell lines treated with RMC-7977 ([3]; CAPAN1, RMC-7977 1.52 nM): 19.123 and 19.8052
- pERK of RAS mutant and RAS WT cell lines treated with RMC-7977 ([3]; CAPAN1, RMC-7977 4.57 nM): 1.955 and 2.566
- pERK of RAS mutant and RAS WT cell lines treated with RMC-7977 ([3]; HUPT3, RMC-7977 0.05 nM): 94.4091 and 94.8337 and 88.9674 and 91.9384 and 90.4786 and 91.137
- pERK of RAS mutant and RAS WT cell lines treated with RMC-7977 ([3]; HUPT3, RMC-7977 0.46 nM): 54.494 and 62.3496 and 67.5543 and 72.6449 and 54.2163 and 63.5857
- pERK (normalised response) ([3]; NCIH358, RMC-7977 0.05 nM): 95.3351 and 101.687
- pERK (normalised response) ([3]; NCIH358, RMC-7977 0.46 nM): 100.659 and 104.04
- pERK (normalised response) ([3]; NCIH358, RMC-7977 4.12 nM): 12.3735 and 16.2725
- pERK (normalised response) ([3]; PSN1, RMC-7977 0.05 nM): 88.9166 and 100.089
- pERK (normalised response) ([3]; RMC-7977 123.46 nM, replicates): -0.725 and -0.593 and -0.5397 and -0.3753 and -0.4309 and -0.2687 and -0.4302 and -0.02426 and 0.06955 and 0.1569 and -0.4286 and -0.3396 and -0.5772 and -0.5479 and -0.6628 and -0.5005 and -0.5749 and -0.2908
- pERK (normalised response) ([3]; RMC-7977 370.39 nM, replicates): -0.7644 and -0.7111 and -0.5907 and -0.5768 and -0.4216 and -0.3892 and -0.6033 and -0.5758 and -0.3364 and 0.5402 and -0.5111 and -0.3801 and -0.726 and -0.7102 and -0.7981 and -0.753 and -0.6335 and -0.6222
- pERK (normalised response) ([3]; RMC-7977 1111.14 nM, replicates): -0.8316 and -0.7436 and -0.6671 and -0.6486 and -0.6046 and -0.6033 and -0.5758 and -0.3138 and -0.0744 and -0.5014 and -0.4707 and -0.7846 and -0.6967 and -0.78 and -0.7169 (2×) and -0.6921
- pERK (normalised response) ([3]; RMC-7977 3333.41 nM, replicates): -0.871 and -0.8455 and -0.7297 and -0.8432 and -0.7667 and -0.6405 and -0.6259 and -0.2555 and 0.2652 and -0.5936 and -0.3995 and -0.7395 and -0.6651 and -0.762 and -0.5906 and -0.7169 and -0.656
- pERK (normalised response) ([3]; RMC-7977 10000.00 nM, replicates): -0.9243 and 0.3336 and -0.8571 and 0.183 and -0.9196 and -0.05096 and -0.6324 and -0.02426 and -0.4949 and 0.5774 and -0.5725 and 0.8637 and -0.8004 and 0.4058 and -0.7439 and 0.02254 and -0.7755 and 0.9604
- pERK suppression over time [4]: sustained pERK suppression
- sensitivity of CYPA-high versus CYPA-low cells, inhibition of signalling (pERK) [5]: threefold
- EC50 (KRAS WT): 77 nM
- EC50 (KRAS^G12D): 176 nM
- EC50 (KRAS^G12R): 123 nM
- Kd (KRAS^G12C): 40.1 nM
- TR-FRET of recombinant KRAS and RALGDS RID (KRAS^G12V; RMC-7977 0.005 nM with CYPA): 1.0295 and 1.03 and 1.0995 and 1.02
- TR-FRET of recombinant KRAS and RALGDS RID (KRAS^G12V; RMC-7977 0.046 nM with CYPA): 1.033 and 0.9862 and 0.9822 and 1.02
- TR-FRET of recombinant KRAS and RALGDS RID (KRAS^G12V; RMC-7977 0.412 nM with CYPA): 0.9113 and 1.003 and 0.948 and 0.8985
- TR-FRET of recombinant KRAS and RALGDS RID (KRAS^G12V; RMC-7977 1.235 nM with CYPA): 0.868 and 0.861 and 0.9113 and 0.9277
- TR-FRET of recombinant KRAS and RALGDS RID (KRAS^G12V; RMC-7977 3.704 nM with CYPA): 0.6665 and 0.6727 and 0.7087 and 0.775
- TR-FRET of recombinant KRAS and RALGDS RID (KRAS^G12V; RMC-7977 11.111 nM with CYPA): 0.4672 and 0.5503 and 0.4273 and 0.4677
- TR-FRET of recombinant KRAS and RALGDS RID (KRAS^G12V; RMC-7977 33.333 nM with CYPA): 0.2172 and 0.237 and 0.1963 and 0.1593
- TR-FRET of recombinant KRAS and RALGDS RID (KRAS^G12V; RMC-7977 100.000 nM with CYPA): 0.031 and -0.01375 and 0.0395 and 0.0045
- IC50 (KRAS^G12V; KRAS^G12V, recombinant, with CYPA): 8 nM
